PubChem BioAssay (NCI)
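A five-concentration, 48-hour dose response in 96-well plates underlies each endpoint, interpolated linearly between surrounding concentrations. TGI: concentration producing complete growth inhibition.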

Assays:
Assay in all cases: NCI tumour cell line growth inhibition, 48 h
EKVX NSCLC = test system: EKVX NSCLC
A498 renal = test system: A498 renal
OVCAR-4 ovarian = test system: OVCAR-4 ovarian
OVCAR-5 ovarian = test system: OVCAR-5 ovarian
OVCAR-8 ovarian = test system: OVCAR-8 ovarian
HS 578T breast = test system: HS 578T breast
SK-OV-3 ovarian = test system: SK-OV-3 ovarian
786-0 renal = test system: 786-0 renal
UACC-257 melanoma = test system: UACC-257 melanoma
A549 NSCLC = test system: A549 NSCLC
MOLT-4 leukemia = test system: MOLT-4 leukemia
LOX IMVI melanoma = test system: LOX IMVI melanoma
SNB-19 CNS = test system: SNB-19 CNS
K-562 leukemia = test system: K-562 leukemia
MDA-MB-435 = test system: MDA-MB-435
MDA-N = test system: MDA-N
CAKI-1 renal = test system: CAKI-1 renal
MDA-MB-231 breast = test system: MDA-MB-231 breast
SN12C renal = test system: SN12C renal
M14 melanoma = test system: M14 melanoma
SF-295 CNS = test system: SF-295 CNS
T-47D breast = test system: T-47D breast
TK-10 renal = test system: TK-10 renal
SK-MEL-28 melanoma = test system: SK-MEL-28 melanoma
HL-60(TB) leukemia = test system: HL-60(TB) leukemia
SW-620 colon = test system: SW-620 colon
COLO 205 colon = test system: COLO 205 colon
NCI-H460 lung = test system: NCI-H460 lung
ACHN renal = test system: ACHN renal
OVCAR-3 ovarian = test system: OVCAR-3 ovarian
NCI-H522 lung = test system: NCI-H522 lung
HCT-15 colon = test system: HCT-15 colon
PC-3 prostate = test system: PC-3 prostate
BT-549 breast = test system: BT-549 breast
HCT-116 colon = test system: HCT-116 colon
SF-268 CNS = test system: SF-268 CNS
NCI/ADR-RES ovarian = test system: NCI/ADR-RES ovarian
NCI-H226 lung = test system: NCI-H226 lung
KM12 colon = test system: KM12 colon
HT29 colon = test system: HT29 colon
MALME-3M melanoma = test system: MALME-3M melanoma
UO-31 renal = test system: UO-31 renal
HCC-2998 colon = test system: HCC-2998 colon
DU-145 prostate = test system: DU-145 prostate
CCRF-CEM leukemia = test system: CCRF-CEM leukemia
HOP-62 NSCLC = test system: HOP-62 NSCLC
UACC-62 melanoma = test system: UACC-62 melanoma
SK-MEL-5 melanoma = test system: SK-MEL-5 melanoma
U251 CNS = test system: U251 CNS
SR leukemia = test system: SR leukemia
SF-539 CNS = test system: SF-539 CNS
SK-MEL-2 melanoma = test system: SK-MEL-2 melanoma
NCI-H23 lung = test system: NCI-H23 lung
SNB-75 CNS = test system: SNB-75 CNS
HOP-92 NSCLC = test system: HOP-92 NSCLC
MCF7 breast = test system: MCF7 breast
RPMI-8226 leukemia = test system: RPMI-8226 leukemia
IGROV1 ovarian = test system: IGROV1 ovarian
RXF 393 renal = test system: RXF 393 renal

SMILES: COc1ccc(C(=O)N(C(=O)N2CCN(c3ccccc3)CC2)S(=O)(=O)c2ccccc2)cc1
- TGI (EKVX NSCLC): 50.4 µM
- TGI (A498 renal): > 100 µM
- TGI (OVCAR-4 ovarian): > 100 µM
- TGI (OVCAR-5 ovarian): 70.8 µM
- TGI (OVCAR-8 ovarian): 53.5 µM
- TGI (HS 578T breast): 79.5 µM
- TGI (SK-OV-3 ovarian): > 100 µM
- TGI (786-0 renal): 90.5 µM
- TGI (UACC-257 melanoma): > 100 µM
- TGI (A549 NSCLC): 88.8 µM
- TGI (MOLT-4 leukemia): 46.5 µM
- TGI (LOX IMVI melanoma): 38 µM
- TGI (SNB-19 CNS): 74.9 µM
- TGI (K-562 leukemia): 94.4 µM
- TGI (MDA-MB-435): > 100 µM
- TGI (MDA-N): 65.4 µM
- TGI (CAKI-1 renal): 54.2 µM
- TGI (MDA-MB-231 breast): 81.9 µM
- TGI (SN12C renal): 55.9 µM
- TGI (M14 melanoma): 42.6 µM
- TGI (SF-295 CNS): > 100 µM
- TGI (T-47D breast): 54 µM
- TGI (TK-10 renal): > 100 µM
- TGI (SK-MEL-28 melanoma): > 100 µM
- TGI (HL-60(TB) leukemia): 48.9 µM
- TGI (SW-620 colon): > 100 µM
- TGI (COLO 205 colon): 31.8 µM
- TGI (NCI-H460 lung): > 100 µM
- TGI (ACHN renal): 35.2 µM
- TGI (OVCAR-3 ovarian): > 100 µM
- TGI (NCI-H522 lung): 33.3 µM
- TGI (HCT-15 colon): > 100 µM
- TGI (PC-3 prostate): > 100 µM
- TGI (BT-549 breast): > 100 µM
- TGI (HCT-116 colon): 42.1 µM
- TGI (SF-268 CNS): > 100 µM
- TGI (NCI/ADR-RES ovarian): 66.7 µM
- TGI (NCI-H226 lung): 58.8 µM
- TGI (KM12 colon): > 100 µM
- TGI (HT29 colon): > 100 µM
- TGI (MALME-3M melanoma): 93.4 µM
- TGI (UO-31 renal): 26.7 µM
- TGI (HCC-2998 colon): > 100 µM
- TGI (DU-145 prostate): 72.2 µM
- TGI (CCRF-CEM leukemia): > 100 µM
- TGI (HOP-62 NSCLC): > 100 µM
- TGI (UACC-62 melanoma): 39.6 µM
- TGI (SK-MEL-5 melanoma): 28 µM
- TGI (U251 CNS): 35.3 µM
- TGI (SR leukemia): 42.8 µM
- TGI (SF-539 CNS): 35.9 µM
- TGI (SK-MEL-2 melanoma): 35 µM
- TGI (NCI-H23 lung): 73.2 µM
- TGI (SNB-75 CNS): 63.8 µM
- TGI (HOP-92 NSCLC): 72.3 µM
- TGI (MCF7 breast): > 100 µM

SMILES: CCOc1ccc2ccc3cccnc3c2n1
- TGI (EKVX NSCLC): > 100 µM
- TGI (A498 renal): 76 µM
- TGI (RPMI-8226 leukemia): 62.5 µM
- TGI (OVCAR-4 ovarian): > 100 µM
- TGI (OVCAR-5 ovarian): > 100 µM
- TGI (OVCAR-8 ovarian): > 100 µM
- TGI (HS 578T breast): > 100 µM
- TGI (SK-OV-3 ovarian): 95.2 µM
- TGI (786-0 renal): > 100 µM
- TGI (UACC-257 melanoma): 85.1 µM
- TGI (A549 NSCLC): > 100 µM
- TGI (LOX IMVI melanoma): > 100 µM
- TGI (SNB-19 CNS): > 100 µM
- TGI (K-562 leukemia): > 100 µM
- TGI (MDA-MB-435): > 100 µM
- TGI (IGROV1 ovarian): > 100 µM
- TGI (MDA-N): > 100 µM
- TGI (CAKI-1 renal): > 100 µM
- TGI (MDA-MB-231 breast): > 100 µM
- TGI (SN12C renal): > 100 µM
- TGI (M14 melanoma): > 100 µM
- TGI (SF-295 CNS): > 100 µM
- TGI (T-47D breast): > 100 µM
- TGI (TK-10 renal): > 100 µM
- TGI (SK-MEL-28 melanoma): > 100 µM
- TGI (HL-60(TB) leukemia): > 100 µM
- TGI (SW-620 colon): > 100 µM
- TGI (COLO 205 colon): > 100 µM
- TGI (NCI-H460 lung): > 100 µM
- TGI (ACHN renal): > 100 µM
- TGI (OVCAR-3 ovarian): 58.4 µM
- TGI (NCI-H522 lung): > 100 µM
- TGI (HCT-15 colon): > 100 µM
- TGI (PC-3 prostate): > 100 µM
- TGI (BT-549 breast): > 100 µM
- TGI (HCT-116 colon): > 100 µM
- TGI (SF-268 CNS): > 100 µM
- TGI (NCI/ADR-RES ovarian): > 100 µM
- TGI (NCI-H226 lung): > 100 µM
- TGI (KM12 colon): > 100 µM
- TGI (HT29 colon): > 100 µM
- TGI (MALME-3M melanoma): > 100 µM
- TGI (UO-31 renal): > 100 µM
- TGI (HCC-2998 colon): > 100 µM
- TGI (DU-145 prostate): > 100 µM
- TGI (CCRF-CEM leukemia): > 100 µM
- TGI (HOP-62 NSCLC): 61.4 µM
- TGI (UACC-62 melanoma): 75.9 µM
- TGI (SK-MEL-5 melanoma): > 100 µM
- TGI (U251 CNS): > 100 µM
- TGI (SR leukemia): 73 µM
- TGI (SF-539 CNS): > 100 µM
- TGI (SK-MEL-2 melanoma): > 100 µM
- TGI (NCI-H23 lung): > 100 µM
- TGI (SNB-75 CNS): > 100 µM
- TGI (RXF 393 renal): > 100 µM
- TGI (HOP-92 NSCLC): > 100 µM
- TGI (MCF7 breast): 45.8 µM

SMILES: CC1(C)CC(=O)c2c(nc(SSc3nc4c(c(-c5ccc(Br)cc5)c3C#N)C(=O)CC(C)(C)C4)c(C#N)c2-c2ccc(Br)cc2)C1
- TGI (EKVX NSCLC): > 10 µM
- TGI (A498 renal): > 10 µM
- TGI (RPMI-8226 leukemia): > 10 µM
- TGI (OVCAR-4 ovarian): > 10 µM
- TGI (OVCAR-5 ovarian): > 10 µM
- TGI (OVCAR-8 ovarian): > 10 µM
- TGI (HS 578T breast): > 10 µM
- TGI (SK-OV-3 ovarian): > 10 µM
- TGI (786-0 renal): > 10 µM
- TGI (UACC-257 melanoma): > 10 µM
- TGI (A549 NSCLC): > 10 µM
- TGI (MOLT-4 leukemia): > 10 µM
- TGI (LOX IMVI melanoma): > 10 µM
- TGI (SNB-19 CNS): > 10 µM
- TGI (K-562 leukemia): > 10 µM
- TGI (IGROV1 ovarian): > 10 µM
- TGI (MDA-N): > 10 µM
- TGI (CAKI-1 renal): > 10 µM
- TGI (SN12C renal): > 10 µM
- TGI (M14 melanoma): > 10 µM
- TGI (SF-295 CNS): > 10 µM
- TGI (T-47D breast): > 10 µM
- TGI (TK-10 renal): > 10 µM
- TGI (SK-MEL-28 melanoma): > 10 µM
- TGI (HL-60(TB) leukemia): > 10 µM
- TGI (SW-620 colon): > 10 µM
- TGI (COLO 205 colon): > 10 µM
- TGI (NCI-H460 lung): > 10 µM
- TGI (ACHN renal): > 10 µM
- TGI (OVCAR-3 ovarian): > 10 µM
- TGI (NCI-H522 lung): > 10 µM
- TGI (HCT-15 colon): > 10 µM
- TGI (PC-3 prostate): > 10 µM
- TGI (BT-549 breast): > 10 µM
- TGI (HCT-116 colon): > 10 µM
- TGI (SF-268 CNS): > 10 µM
- TGI (NCI/ADR-RES ovarian): > 10 µM
- TGI (NCI-H226 lung): > 10 µM
- TGI (KM12 colon): > 10 µM
- TGI (HT29 colon): > 10 µM
- TGI (MALME-3M melanoma): > 10 µM
- TGI (UO-31 renal): > 10 µM
- TGI (HCC-2998 colon): > 10 µM
- TGI (DU-145 prostate): > 10 µM
- TGI (CCRF-CEM leukemia): > 10 µM
- TGI (HOP-62 NSCLC): > 10 µM
- TGI (SK-MEL-5 melanoma): > 10 µM
- TGI (U251 CNS): > 10 µM
- TGI (SR leukemia): > 10 µM
- TGI (SF-539 CNS): > 10 µM
- TGI (SK-MEL-2 melanoma): > 10 µM
- TGI (NCI-H23 lung): > 10 µM
- TGI (SNB-75 CNS): > 10 µM
- TGI (RXF 393 renal): > 10 µM
- TGI (HOP-92 NSCLC): > 10 µM
- TGI (MCF7 breast): > 10 µM
